Data from ChEMBL document CHEMBL1137464, “Novel steroidal saponins, Sch 725737 and Sch 725739, from a marine starfish, Novodinia antillensis” (Bioorg Med Chem Lett, 2007).

What was measured:
[1] = molecular target: T1, Sodium channel protein type 10 subunit alpha (Homo sapiens, UniProt Q9Y5Y9); experiment: Inhibition of sodium channel NaV1.8 expressed in rat ND7/23 cells by FLIPR assay; type: cell-based
Target sequence in this assay (Q9Y5Y9 whole entry): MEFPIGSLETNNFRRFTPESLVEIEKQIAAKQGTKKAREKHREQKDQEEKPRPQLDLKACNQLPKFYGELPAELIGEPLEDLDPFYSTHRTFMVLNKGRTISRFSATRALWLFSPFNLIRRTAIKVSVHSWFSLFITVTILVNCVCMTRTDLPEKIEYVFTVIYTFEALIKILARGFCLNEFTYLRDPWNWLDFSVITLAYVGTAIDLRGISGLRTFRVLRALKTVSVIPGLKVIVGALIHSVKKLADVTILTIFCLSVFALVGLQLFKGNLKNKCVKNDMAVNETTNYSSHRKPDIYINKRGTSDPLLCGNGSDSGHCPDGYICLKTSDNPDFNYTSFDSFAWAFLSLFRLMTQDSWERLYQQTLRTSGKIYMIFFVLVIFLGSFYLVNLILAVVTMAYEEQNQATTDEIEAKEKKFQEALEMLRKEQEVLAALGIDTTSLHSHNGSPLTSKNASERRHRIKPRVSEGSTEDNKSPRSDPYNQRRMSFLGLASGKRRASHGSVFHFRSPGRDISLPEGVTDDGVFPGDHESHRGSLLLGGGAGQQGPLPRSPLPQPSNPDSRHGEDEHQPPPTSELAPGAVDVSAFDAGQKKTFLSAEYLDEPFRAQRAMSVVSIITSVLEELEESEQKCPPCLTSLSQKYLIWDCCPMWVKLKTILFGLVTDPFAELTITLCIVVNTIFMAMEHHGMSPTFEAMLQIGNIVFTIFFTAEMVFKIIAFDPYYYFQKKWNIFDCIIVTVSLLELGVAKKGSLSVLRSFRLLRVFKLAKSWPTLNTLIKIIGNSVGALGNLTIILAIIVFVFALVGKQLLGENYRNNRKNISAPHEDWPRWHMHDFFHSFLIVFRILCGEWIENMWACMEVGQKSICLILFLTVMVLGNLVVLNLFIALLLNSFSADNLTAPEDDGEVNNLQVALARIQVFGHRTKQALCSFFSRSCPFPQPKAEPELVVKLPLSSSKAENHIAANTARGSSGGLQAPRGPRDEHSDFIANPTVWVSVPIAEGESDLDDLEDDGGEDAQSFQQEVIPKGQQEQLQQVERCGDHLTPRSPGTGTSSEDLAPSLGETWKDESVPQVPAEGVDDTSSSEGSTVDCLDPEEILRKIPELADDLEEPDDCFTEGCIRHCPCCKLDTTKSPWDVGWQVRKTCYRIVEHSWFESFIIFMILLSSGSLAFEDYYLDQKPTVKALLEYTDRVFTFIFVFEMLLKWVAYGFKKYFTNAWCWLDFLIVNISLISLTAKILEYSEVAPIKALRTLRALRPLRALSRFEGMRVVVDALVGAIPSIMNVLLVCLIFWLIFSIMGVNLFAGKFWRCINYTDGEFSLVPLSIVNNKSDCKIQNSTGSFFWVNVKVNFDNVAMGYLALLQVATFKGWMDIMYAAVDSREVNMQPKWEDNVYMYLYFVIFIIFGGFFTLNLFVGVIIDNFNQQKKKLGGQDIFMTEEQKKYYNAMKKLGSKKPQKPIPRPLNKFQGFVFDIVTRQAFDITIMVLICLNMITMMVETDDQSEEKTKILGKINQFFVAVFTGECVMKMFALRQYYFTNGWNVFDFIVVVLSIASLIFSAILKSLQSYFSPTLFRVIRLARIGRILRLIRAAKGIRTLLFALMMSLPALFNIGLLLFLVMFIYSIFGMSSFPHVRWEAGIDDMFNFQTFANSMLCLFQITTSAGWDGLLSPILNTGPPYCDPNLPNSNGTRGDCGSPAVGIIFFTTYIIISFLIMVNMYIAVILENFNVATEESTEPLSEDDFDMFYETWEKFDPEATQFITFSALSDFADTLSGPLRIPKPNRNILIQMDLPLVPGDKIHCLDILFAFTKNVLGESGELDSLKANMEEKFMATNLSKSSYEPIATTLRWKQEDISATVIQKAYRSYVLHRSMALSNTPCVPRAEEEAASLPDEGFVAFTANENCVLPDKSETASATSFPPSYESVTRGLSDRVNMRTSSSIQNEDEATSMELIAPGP

[2] = molecular target: T1, Sodium channel protein type 10 subunit alpha; experiment: Inhibition of sodium channel NaV1.8 at 20 ug/mL by HTS assay
Target sequence in this assay (Q9Y5Y9 whole entry, looked up): as the sequence (Q9Y5Y9 whole entry) above

CC(C)CCC[C@@](C)(O)[C@H]1CC[C@H]2[C@@H]3C[C@H](O[C@@H]4O[C@H](C)[C@@H](O)[C@H](O[C@@H]5OC[C@@H](O[C@@H]6O[C@H](C)[C@@H](O[C@@H]7OC[C@H](O)[C@H](O)[C@H]7O)[C@H](O)[C@H]6O[C@@H]6O[C@H](C)[C@H](O)[C@H](O)[C@H]6O)[C@H](O)[C@H]5O[C@@H]5O[C@H](C)[C@@H](O)[C@H](O)[C@H]5O)[C@H]4O)[C@H]4C[C@@H](OS(=O)(=O)O)CC[C@]4(C)C3=CC[C@@]21C
IC50 [1]: 9 µM
inhibition [2]: 88%

CC(C)CCC[C@@](C)(O)[C@H]1CC[C@H]2[C@@H]3C[C@H](O[C@@H]4O[C@H](C)[C@@H](O)[C@H](O[C@@H]5O[C@H](C)[C@@H](O[C@@H]6O[C@H](C)[C@@H](O[C@@H]7OC[C@H](O)[C@H](O)[C@H]7O)[C@H](O)[C@H]6O[C@@H]6O[C@H](C)[C@H](O)[C@H](O)[C@H]6O)[C@H](O)[C@H]5O[C@@H]5O[C@H](C)[C@@H](O)[C@H](O)[C@H]5O)[C@H]4O)[C@H]4C[C@@H](OS(=O)(=O)O)CC[C@]4(C)C3=CC[C@@]21C
inhibition [2]: 88%
